The text below walks through data of PubChem BioAssay (NCI).

Among the test systems are NCI-H23 lung; CAKI-1 renal; SN12C renal; UACC-257 melanoma; M19-MEL melanoma; SR leukemia; DMS 273 small cell lung; HL-60(TB) leukemia; SK-MEL-28 melanoma; DMS 114 small cell lung; XF 498 CNS; NCI-H460 lung.
What all share (test): inhibition of tumour cell growth, NCI panel, 48 h

Where “and” joins values, the source holds several entries; their conditions need not be identical. Equal entries are not always repeated.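 Step 1: Grow cells in 96-well plates. Step 2: Expose to compound for 48 hours at 5 concentrations. Step 3: Interpolate endpoints linearly; if unreached, use highest concentration. Here, GI50 denotes the concentration required for 50% inhibition of growth. TGI: concentration producing complete growth inhibition.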 Bounds are passed on as bounds.

As to `CCOC(=O)c1ccn2c(c1)c(C#N)c1nc3ccccc3nc12`, the TGI in the assay on NCI-H23 lung, in the assay with CAKI-1 renal, in the assay on SN12C renal, with UACC-257 melanoma, with M19-MEL melanoma and in the assay with SR leukemia was > 100 µM in each case. Also, the TGI was > 100 µM in the assay with DMS 273 small cell lung; > 100 µM in the assay on HL-60(TB) leukemia; > 100 µM with SK-MEL-28 melanoma; > 100 µM in the assay on DMS 114 small cell lung; 93.3 µM in the assay on XF 498 CNS; > 100 µM with NCI-H460 lung.
Regarding `C/C=C1/C(=Cc2[nH]c(C=c3[nH]/c(=C/C4=NC(=O)C(CC)=C4C)c(C)c3CCC(=O)O)c(CCC(=O)O)c2C)NC(=O)C1C` (stereo not given), the TGI with NCI-H23 lung was > 50 µM; in the assay on CAKI-1 renal it was > 50 µM; in the assay with SN12C renal it was > 50 µM; with UACC-257 melanoma it was 24.9 µM; with M19-MEL melanoma, 41.6 µM; in the assay on SR leukemia, > 50 µM. Further, the TGI with DMS 273 small cell lung was 37.1 µM; in the assay on HL-60(TB) leukemia, > 50 µM; in the assay on SK-MEL-28 melanoma, > 50 µM; in the assay on DMS 114 small cell lung, > 50 µM; in the assay with XF 498 CNS, 17.5 µM; in the assay with NCI-H460 lung, 40.6 µM.
For the compound `COC(=O)/C(=N\N)C(C(=O)C(=O)Nc1nc(=S)[nH][nH]1)c1nc2ccc([N+](=O)[O-])cc2[nH]c1=O` (stereo not given), the TGI in the assay with NCI-H23 lung, in the assay on CAKI-1 renal, in the assay with SN12C renal, with UACC-257 melanoma, with M19-MEL melanoma and with SR leukemia was > 100 µM each time. In addition, the TGI with DMS 273 small cell lung, with HL-60(TB) leukemia, in the assay with SK-MEL-28 melanoma, in the assay with DMS 114 small cell lung and in the assay with NCI-H460 lung was > 100 µM throughout.
For `C/C(=C\CC/C=C(\C)CC/C=C(\C)CCC1SC1(C)C)CC/C=C(\C)CCC1OC1(C)C` (stereo not given), the TGI with NCI-H23 lung, in the assay with CAKI-1 renal, with SN12C renal, with M19-MEL melanoma, with SR leukemia and with DMS 273 small cell lung was > 100 µM throughout. For the same compound, the TGI in the assay on HL-60(TB) leukemia, in the assay with SK-MEL-28 melanoma, with DMS 114 small cell lung, in the assay with XF 498 CNS and with NCI-H460 lung was > 100 µM throughout.
On to `Cc1cc(C)c(C(=O)C(C)C(c2ccccc2)c2ccc(Cl)cc2)c(C)c1` (stereo not given), for which the TGI in the assay on NCI-H23 lung, in the assay on CAKI-1 renal, in the assay on SN12C renal, in the assay with UACC-257 melanoma, in the assay with M19-MEL melanoma and in the assay with SR leukemia was > 100 µM throughout. The TGI in the assay on HL-60(TB) leukemia, in the assay on SK-MEL-28 melanoma, with DMS 114 small cell lung, in the assay on XF 498 CNS and in the assay with NCI-H460 lung was > 100 µM in each case. In addition, the GI50 in the assay on HL-60(TB) leukemia was > 100 µM and 39.6 µM.
As to `CC(=O)OCC1=CC2CCC3C(C)(CCC[C@]3(C)COC(C)=O)C23CC[C@H]1C3` (stereo not given in full), the TGI in the assay on NCI-H23 lung is > 100 µM; in the assay with CAKI-1 renal, > 100 µM; in the assay with SN12C renal, > 100 µM; in the assay on UACC-257 melanoma, > 100 µM; in the assay on M19-MEL melanoma, > 100 µM; in the assay with SR leukemia, 76.5 µM. Also, the TGI in the assay with DMS 273 small cell lung is > 100 µM; in the assay with HL-60(TB) leukemia, 53.6 µM; in the assay with SK-MEL-28 melanoma it was > 100 µM; in the assay with DMS 114 small cell lung it was 44.3 µM; with XF 498 CNS, 81.9 µM; in the assay with NCI-H460 lung it was > 100 µM.
On to `COC1(C)CNCC(C)(C)NC(=O)C(C)(OC)CNCC(C)(C)NC1=O` (stereo not given), for which the TGI in the assay on NCI-H23 lung, in the assay on CAKI-1 renal, in the assay on SN12C renal, with UACC-257 melanoma, in the assay with M19-MEL melanoma and in the assay with DMS 273 small cell lung was > 100 µM each time. Besides, the TGI in the assay on HL-60(TB) leukemia, with SK-MEL-28 melanoma, in the assay on DMS 114 small cell lung and in the assay on NCI-H460 lung was > 100 µM throughout.
Consider `O=S(=O)(CF)OCCCCOS(=O)(=O)CF`, for which the TGI in the assay with NCI-H23 lung, with CAKI-1 renal, in the assay with SN12C renal, in the assay with M19-MEL melanoma, in the assay on DMS 273 small cell lung and with HL-60(TB) leukemia was > 100 µM in each case. Further, the TGI with SK-MEL-28 melanoma, in the assay with DMS 114 small cell lung and with NCI-H460 lung was > 100 µM throughout.
Consider `COC(=O)C(C#N)C1NC(=O)c2ccccc21` (stereo not given), for which the TGI with NCI-H23 lung, in the assay with SN12C renal, in the assay on UACC-257 melanoma, in the assay on M19-MEL melanoma, in the assay on SR leukemia and in the assay on DMS 273 small cell lung was > 100 µM throughout. For the same compound, the TGI with HL-60(TB) leukemia, with SK-MEL-28 melanoma, in the assay with DMS 114 small cell lung and with NCI-H460 lung was > 100 µM in each case.
Turning to `CCCCCCCCCCCCCCCCCCOCC(O)CO` (stereo not given), the TGI with NCI-H23 lung is > 25 µM; in the assay with CAKI-1 renal, > 5.39 µM; in the assay on SN12C renal, > 25 µM; in the assay with UACC-257 melanoma, > 25 µM; in the assay with M19-MEL melanoma it was 24.6 µM; in the assay with DMS 273 small cell lung, > 7.73 µM. Also, the TGI in the assay with HL-60(TB) leukemia was > 21.4 µM; in the assay with SK-MEL-28 melanoma, > 25 µM; with DMS 114 small cell lung, > 25 µM; in the assay on XF 498 CNS, > 25 µM; in the assay on NCI-H460 lung, > 23 µM.
